From patent US4933104A, “Anthraquinone derivative as a dichroic dye for a liquid-crystal material, liquid-crystal material and an electrooptical device” (priority 1986, dated 1990) come the findings set out here.

Holding throughout (format): physicochemical
The nature of data set [1]: λmax of the long-wave absorption band of the dye. To be noted: Table 1 / Examples; several values = several maxima. The method, then:
(§1) Table 1 given below lists the values of negative dichroism of the anthraquinone derivative of general formula /1/ for examples 1-30 in a liquid-crystalline mixture ZK-807; Table 2 illustrates physico-chemical characteristics, and Table 3--limiting solubility in liquid-crystalline mixtures (ZK-807, ZLI-1840, 3010, SP-586, ZK-1282) at 20° C.

The nature of data set [2]: negative dichroism S in a liquid-crystalline mixture. To be noted: liquid-crystalline mixture ZK-807. On the procedure:
as §1

A short description of data set [3]: limiting solubility in liquid-crystalline mixtures at 20° C. To be noted: for solubility exceeds the solubility of the known analogue: ratio to known derivative, No. 2, 7 and 6 of Table 3 vs No. 1, 5 and 6 of Table 6; for Solubility (limiting), known derivatives: Table 6, derivatives of SU 1089084.

Several values for one entry are separate records, joined by “and”; a condition that tells them apart may be missing. Equal entries are not always repeated.

Consider `CCCCCc1cc(NC(=O)c2ccc(CCCC)cc2)c2c(c1O)C(=O)c1c(OC(=O)c3ccc(CCCC)cc3)c(CCCCC)cc(NC(=O)c3ccc(CCCC)cc3)c1C2=O` [Compound 25], for which the λmax in data set [1] is on record as 540 nm. In addition, the “negative dichroism S” value in data set [2] is listed as -0.30. In addition, the “Solubility (limiting)” value in data set [3] (3010, 20° C.) was determined as 0.9 mass %; in data set [3] (ZK-807, 20° C.), 3.0 mass %; in data set [3] (ZLI-1840, 20° C.), 1.0 mass %.
The compound `CCCCCC1CCC(c2ccc(C(=O)Nc3cc(CCCC)c(OC(=O)CCC)c4c3C(=O)c3c(NC(=O)c5ccc(C6CCC(CCCCC)CC6)cc5)cc(CCCC)c(OC(=O)CCC)c3C4=O)cc2)CC1` (centres unmarked) [Compound 12] displayed a λmax in data set [1] of 473 nm. For the same compound, the “negative dichroism S” value in data set [2] is listed as -0.35. For the same compound, the “Solubility (limiting)” value in data set [3] (3010, 20° C.) is on record as 1.82 mass %; in data set [3] (ZK-807, 20° C.) it was 5.2 mass %.
As for `CCCCCC1CCC(c2ccc(C(=O)Nc3cc(CCCC)c(OC(=O)c4ccc(C5CCC(CCCCC)CC5)cc4)c4c3C(=O)c3c(NC(=O)c5ccc(C6CCC(CCCCC)CC6)cc5)cc(CCCC)c(OC(=O)c5ccc(C6CCC(CCCCC)CC6)cc5)c3C4=O)cc2)CC1` (centres unmarked) [Compound 8], the λmax in data set [1] stood at 466 nm. The “negative dichroism S” value in data set [2] is on record as -0.38. The “Solubility (limiting)” value in data set [3] (3010, 20° C.) is 2.6 mass %; in data set [3] (ZK-807, 20° C.), 11.0 mass %; in data set [3] (ZK-1282, 20° C.) it was 1.8 mass %; in data set [3] (ZLI-1840, 20° C.), 5.7 mass %.
Consider `CCCCc1cc(NC(=O)C2CCC(CCCC)CC2)c2c(c1OC(=O)c1ccc(C3CCC(CCCC)CC3)cc1)C(=O)c1c(OC(=O)c3ccc(C4CCC(CCCC)CC4)cc3)c(CCCC)cc(NC(=O)C3CCC(CCCC)CC3)c1C2=O` (centres unmarked) [Compound 10], for which, in data set [1], the λmax stood at 466 nm. The “negative dichroism S” value in data set [2] is -0.35. For the same compound, the “Solubility (limiting)” value is on record as 9.0 mass % in data set [3] (3010, 20° C.); 7.5 mass % in data set [3] (SP-586, 20° C.); 10.8 mass % in data set [3] (ZK-807, 20° C.); 7.2 mass % in data set [3] (ZLI-1840, 20° C.).
`CCCCCC1CCC(c2ccc(C(=O)Nc3cc(CCCC)c(O)c4c3C(=O)c3c(NC(=O)c5ccc(C6CCC(CCCCC)CC6)cc5)cc(CCCC)c(OC(=O)CCC)c3C4=O)cc2)CC1` (centres unmarked) [Compound 22] returned a λmax in data set [1] of 545 nm. In data set [2], the “negative dichroism S” value is reported as -0.38. Besides, the “Solubility (limiting)” value in data set [3] (3010, 20° C.) came to 2.0 mass %; in data set [3] (SP-586, 20° C.), 1.2 mass %; in data set [3] (ZK-807, 20° C.), 1.1 mass %; in data set [3] (ZK-1282, 20° C.) it was 1.5 mass %; in data set [3] (ZLI-1840, 20° C.) it was 1.4 mass %.
Regarding `CCCCCCC1CCC(c2ccc(C(=O)Nc3cc(CCCC)c(O)c4c3C(=O)c3c(NC(=O)c5ccc(C6CCC(CCCCCC)CC6)nc5Cl)cc(CCCC)c(OC(=O)c5ccc(C6CCC(CCCCCC)CC6)nc5Cl)c3C4=O)c(Cl)n2)CC1` (centres unmarked) [Compound 20], in data set [1], the λmax is reported as 534 nm. Moreover, the “negative dichroism S” value in data set [2] is on record as -0.33. Also, the “Solubility (limiting)” value in data set [3] (3010, 20° C.) is 0.75 mass %; in data set [3] (ZK-807, 20° C.), 1.2 mass %; in data set [3] (ZLI-1840, 20° C.) it was 0.7 mass %.
Take `CCCCC[C@H]1CC[C@H](c2ccc(C(=O)Nc3cc(CCCC)c(O)c4c3C(=O)c3c(NC(=O)c5ccc([C@H]6CC[C@H](CCCCC)CC6)cc5)cc(CCCC)c(O)c3C4=O)cc2)CC1` [Compound 29, 1,8-Bis-4-(trans-4-amylcyclohexyl)benzamido-3,6-dibutyl-4,5-dioxyanthraquinone]: in data set [1], the λmax was 563 nm and 606 nm. The “negative dichroism S” value in data set [2] was -0.32. For the same compound, the “Solubility (limiting)” value worked out at 1.0 mass % in data set [3] (3010, 20° C.); 1.0 mass % in data set [3] (ZK-807, 20° C.); 1.0 mass % in data set [3] (ZK-1282, 20° C.); 1.0 mass % in data set [3] (ZLI-1840, 20° C.).
With `CCCCCCc1ccc(C(=O)Nc2cc(CCCCC)c(O)c3c2C(=O)c2c(NC(=O)c4ccc(CCCCCC)cc4)cc(CCCCC)c(OC(=O)c4ccc(CCCCCC)cc4)c2C3=O)cc1` [Compound 26], the λmax in data set [1] worked out at 542 nm. In addition, in data set [2], the “negative dichroism S” value was -0.31. Besides, the “Solubility (limiting)” value is given as 1.0 mass % in data set [3] (3010, 20° C.); 2.9 mass % in data set [3] (ZK-807, 20° C.); 0.7 mass % in data set [3] (ZK-1282, 20° C.); 1.1 mass % in data set [3] (ZLI-1840, 20° C.).
Regarding `CCCCCCc1ccc(C(=O)Nc2cc(CCCC)c(OC(=O)c3ccc(CCCCCC)cc3)c3c2C(=O)c2c(NC(=O)c4ccc(CCCCCC)cc4)cc(CCCC)c(OC(=O)c4ccc(CCCCCC)cc4)c2C3=O)cc1` [Compound 7], the λmax in data set [1] is 434 nm and 455 nm. The “negative dichroism S” value in data set [2] is given as -0.26. Also, the “Solubility (limiting)” value in data set [3] (ZK-807, 20° C.) came out at 5.0 mass %. Also, the “solubility exceeds the solubility of the known analogue” value in data set [3] was found to be 10 times.
Take `CCCCCC1CCC(c2ccc(C(=O)Nc3ccc(O)c4c3C(=O)c3c(NC(=O)c5ccc(C6CCC(CCCCC)CC6)cc5)cc(CCCC)c(O)c3C4=O)cc2)CC1` (centres unmarked) [Compound 28]: the λmax in data set [1] was 564 nm and 605 nm. In addition, the “negative dichroism S” value in data set [2] is reported as -0.32. For the same compound, the “Solubility (limiting)” value was 1.1 mass % in data set [3] (3010, 20° C.); 0.8 mass % in data set [3] (SP-586, 20° C.); 0.6 mass % in data set [3] (ZK-807, 20° C.); 1.0 mass % in data set [3] (ZK-1282, 20° C.); 1.0 mass % in data set [3] (ZLI-1840, 20° C.).
`CCCCc1cc(NC(=O)c2ccc(C3CCC(CCCC)CC3)cc2)c2c(c1O)C(=O)c1c(OC(=O)CCC)c(CCCC)cc(NC(=O)c3ccc(C4CCC(CCCC)CC4)cc3)c1C2=O` (centres unmarked) [Compound 23] gave a λmax in data set [1] of 542 nm. For the same compound, the “negative dichroism S” value in data set [2] is given as -0.36. Also, the “Solubility (limiting)” value was determined as 2.0 mass % in data set [3] (3010, 20° C.); 1.7 mass % in data set [3] (ZK-807, 20° C.); 2.6 mass % in data set [3] (ZLI-1840, 20° C.).
On to `CCCCCC1CCC(c2ccc(C(=O)Nc3cc(CCCC)c(OC(=O)C4CCC(CCCC)CC4)c4c3C(=O)c3c(NC(=O)c5ccc(C6CCC(CCCCC)CC6)cc5)cc(CCCC)c(OC(=O)C5CCC(CCCC)CC5)c3C4=O)cc2)CC1` (centres unmarked) [Compound 9], for which the λmax in data set [1] worked out at 475 nm. Besides, the “negative dichroism S” value in data set [2] is reported as -0.38. The “Solubility (limiting)” value in data set [3] (3010, 20° C.) worked out at 9.0 mass %; in data set [3] (ZK-807, 20° C.) it was 9.0 mass %; in data set [3] (ZLI-1840, 20° C.) it was 7.7 mass %.
In the case of `CCCCc1ccc(C(=O)Nc2cc(CCCC)c(OC(=O)c3ccc(CCCC)cc3)c3c2C(=O)c2c(NC(=O)c4ccc(CCCC)cc4)cc(CCCC)c(OC(=O)c4ccc(CCCC)cc4)c2C3=O)cc1` [Compound 6, 1,8-Bis-(4-butylbenzamido)-4,5-bis-(4.butylbenzoyloxy)-3,6-dibutylanthraquinone], the λmax in data set [1] is 468 nm. In addition, in data set [2], the “negative dichroism S” value is reported as -0.33. In addition, the “Solubility (limiting)” value in data set [3] (3010, 20° C.) came to 4.6 mass %; in data set [3] (SP-586, 20° C.) it was 4.0 mass %; in data set [3] (ZK-807, 20° C.) it was 9.0 mass %; in data set [3] (ZK-1282, 20° C.) it was 4.0 mass %. Besides, the “solubility exceeds the solubility of the known analogue” value in data set [3] was 18 times.
In data set [1], `CCCCc1cc(NC(=O)c2ccc(C3CCC(CCCC)CC3)cc2)c2c(c1OC(=O)CCC)C(=O)c1c(OC(=O)CCC)c(CCCC)cc(NC(=O)c3ccc(C4CCC(CCCC)CC4)cc3)c1C2=O` (centres unmarked) [Compound 13] yielded a λmax of 470 nm. In addition, the “negative dichroism S” value in data set [2] was -0.37. Moreover, the “Solubility (limiting)” value was 1.75 mass % in data set [3] (3010, 20° C.); 4.9 mass % in data set [3] (ZK-807, 20° C.); 2.1 mass % in data set [3] (ZLI-1840, 20° C.).
As to `CCCCCc1cc(NC(=O)c2ccc(CCCC)cc2)c2c(c1OC(=O)c1ccc(CCCC)cc1)C(=O)c1c(OC(=O)c3ccc(CCCC)cc3)c(CCCCC)cc(NC(=O)c3ccc(CCCC)cc3)c1C2=O` [Compound 14], the λmax in data set [1] is 458 nm and 470 nm. In data set [2], the “negative dichroism S” value is -0.32. Moreover, the “Solubility (limiting)” value is listed as 4.46 mass % in data set [3] (3010, 20° C.); 3.78 mass % in data set [3] (SP-586, 20° C.); 9.5 mass % in data set [3] (ZK-807, 20° C.); 4.0 mass % in data set [3] (ZK-1282, 20° C.); 3.8 mass % in data set [3] (ZLI-1840, 20° C.).
For `CCCCCCCCNc1cc(CCCC)c(NC(=O)c2ccc(-c3ccc(CCCCCCCC)cc3)cc2)c2c1C(=O)c1ccccc1C2=O` [Compound 1], the “Solubility (limiting)” value in data set [3] (ZK-807, 20° C.) worked out at 2.0 mass %.
The compound `CCCCCC1CCC(c2ccc(C(=O)Nc3ccc(OC(=O)c4ccc(C5CCC(CCCCC)CC5)cc4)c4c3C(=O)c3c(NC(=O)c5ccc(C6CCC(CCCCC)CC6)cc5)cc(C)c(OC(=O)c5ccc(C6CCC(CCCCC)CC6)cc5)c3C4=O)cc2)CC1` (centres unmarked) [Compound 4] showed a λmax in data set [1] of 468 nm. For the same compound, in data set [2], the “negative dichroism S” value was -0.36. Moreover, the “Solubility (limiting)” value in data set [3] (3010, 20° C.) amounted to 3.0 mass %; in data set [3] (SP-586, 20° C.) it was 1.9 mass %; in data set [3] (ZK-807, 20° C.), 1.0 mass %; in data set [3] (ZLI-1840, 20° C.), 1.5 mass %.
For `CCCCc1cc(NC(=O)c2ccc(C3CCC(CCCC)CC3)cc2)c2c(c1O)C(=O)c1c(O)c(CCCC)cc(NC(=O)c3ccc(C4CCC(CCCC)CC4)cc3)c1C2=O` (centres unmarked) [Compound 30], in data set [1], the λmax is 566 nm and 608 nm. For the same compound, in data set [2], the “negative dichroism S” value was -0.34.
Consider `CCCCCCCCc1ccc(-c2ccc(C(=O)Nc3ccc(NCCCC)c4c3C(=O)c3ccccc3C4=O)cc2)cc1` [No. 1, Table 6, reference compound], for which the “Solubility (limiting), known derivatives” value in data set [3] (ZK-807, 20° C.) is reported as 0.8 mass %; in data set [3] (ZLI-1840, 20° C.), 0.4 mass %.
`CCCCCc1ccc(-c2ccc(C(=O)Nc3ccc(NCCCC)c4c3C(=O)c3ccccc3C4=O)cc2)cc1` [No. 2, Table 6, reference compound]: the “Solubility (limiting), known derivatives” value in data set [3] (ZK-807, 20° C.) is given as 0.9 mass %; in data set [3] (ZLI-1840, 20° C.), 0.5 mass %.
